Results on three compounds are retold here after ChEMBL document CHEMBL4334474, “Friomaramide, a Highly Modified Linear Hexapeptide from an Antarctic Sponge, Inhibits Plasmodium falciparum Liver-Stage Development” (J Nat Prod, 2019).

The subject of data set [1] is Plasmodium falciparum. The data set can be described thus: Antimalarial activity against Plasmodium falciparum liver stage form infected in human primary hepatocytes assessed as reduction in viability at 19.3 uM incubated for 3 days followed by compound wash and measured on day 6 relative to control. The data set is classed as functional.
The test system of data set [2] is Hepatocyte. The data set can be described thus: Cytotoxicity against human primary hepatocytes at 19.3 uM. It counts as cell-based.
In data set [3] the test system is Plasmodium falciparum. The experiment in a line: Antimalarial activity against Plasmodium falciparum liver stage form infected in human primary hepatocytes assessed as reduction in viability at 6.1 uM incubated for 3 days followed by compound wash and measured on day 6 relative to control. It counts as functional.
Data set [4] has as its system Hepatocyte. The experiment in a line: Cytotoxicity against human primary hepatocytes at 6.1 uM. The data set is classed as cell-based.
Data set [5] concerns Plasmodium falciparum. The experiment in a line: Antimalarial activity against Plasmodium falciparum liver stage form infected in human primary hepatocytes assessed as reduction in viability at 17.6 uM incubated for 3 days followed by compound wash and measured on day 6. The data set is classed as functional, organism-based.
In data set [6] the test system is Hepatocyte. The experiment in a line: Cytotoxicity against human primary hepatocytes at 17.6 uM. The data set is classed as cell-based.

Activity calls are given as the source filed them. The calls are words filed in the database; no cut-off is given here. Non-standard residues stand in square brackets, D forms with d. Residues, ends and D or L forms follow the SMILES beside them. *: point of attachment. NMeI = CC[C@H](C)[C@H](NC)C(=O)O; dNMeF = CN[C@H](Cc1ccccc1)C(=O)O; X1 = C(=C/c1c[nH]c2ccccc12)/N*; NMeV = CN[C@H](C(=O)O)C(C)C; NMeA = CN[C@@H](C)C(=O)O

Take `COc1cc(NC(C)CCCN)c2ncccc2c1` (stereo unspecified) [PRIMAQUINE]: the inhibition at 19.3 µM with Plasmodium falciparum [1] is over 90%. Further, in the data set on Hepatocyte [2], the Activity entry is “Non-Toxic”.

As for `CC[C@H](C)[C@@H](C(=O)N/C=C\c1c[nH]c2ccccc12)N(C)C(=O)[C@H]([C@@H](C)CC)N(C)C(=O)[C@H](C)N(C)C(=O)[C@H](C(C)C)N(C)C(=O)[C@@H](Cc1ccccc1)N(C)C(C)=O` (Ac-[dNMeF][NMeV][NMeA][NMeI][NMeI]-X1), the inhibition at 6.1 µM in the data set on Plasmodium falciparum [3] lay in the range of 90 to 92%. The Activity result in the data set with Hepatocyte [4] is “Non-Toxic”.

`C[C@H]1[C@@H](O)O[C@@H]2O[C@@]3(C)CC[C@H]4[C@H](C)CC[C@@H]1[C@@]24OO3` [ARTENIMOL]: the inhibition result in the data set on Plasmodium falciparum [5] was “inactive”. In the data set on Hepatocyte [6], the Activity entry was “Non-Toxic”.
